Where two headings read alike, the source gives them in different places.
How the values were obtained:
human A549 cells = experiment: Protective effect against cell injury induced by oxidized LDL in human A549 cells (LDH leakage); type: cell-based; conditions: for inhibition at 3 µM / inhibition at 30 µM: Homo sapiens, oxidized LDL 100 μg/mL, 24 hours, average ± standard error; for inhibition at 3 µM: 3 μmol/L test compound; for inhibition at 30 µM: 30 μmol/L test compound; for % cell protection as a function of test compound concentration (FIG. 1): test compound added immediately before oxidized LDL, Test Example 2
Description: (§1) Oxidized LDL was prepared by maintaining 1 mg/mL of rabbit LDL at 37° C for 24 hours in PBS (-) containing 10 μmol/L CUSO4.
Human A549 cells used in this test are available under accession number ATCC-CCL-185 and have the properties of type II alveolar epithelial cells (Lieber M, Smith B, Szakal A, Nelson-Rees W, Todaro G., A continuous tumor-cell line from a human lung carcinoma with properties of type II alveolar epithelial cells. Int J Cancer Jan. 15, 1976; 17(1):62-70).
(§2) These cells were dispersed in F12K medium containing 10% FBS and plated on a 24-well plate at 2.5×10^4 cells/500 μL/well. These cells were incubated at 37° C. for 18 hours and then the medium was replaced by F12K medium containing 2% FBS. At this time, 2.5 μL of a solution or a suspension of each test compound in ethanol was added at the concentrations of the test compound of 3 μmol/L and 30 μmol/L in each well.
(§3) After incubation at 37° C. for 6 hours, 50 μL of a suspension of oxidized LDL was added per well at the concentration of oxidized LDL of 100 μg/mL in each well.
(§4) After incubation at 37° C. for 24 hours, 200 μL of the supernatant was collected from each well and the amount of lactate dehydrogenase (LDH) leaked from cells was determined by the SFBC method.
(§5) Further test was carried out in the same manner as the above test with the exception that each test compound was added to the cell culture after incubation for 6 hours following medium replacement and immediately before oxidized LDL was added thereto rather than when the medium was replaced with F12K medium containing 2% FBS.
(§6) Higher LDH levels in the supernatant indicate that greater cell injury is induced by oxidized LDL. Separately, one experiment was carried out using a well in the same manner as the above test with the exception that no test compound was added to the well. The level of LDH in this well was defined as 0% cell protection. In addition, other experiment was carried out using another well without adding either test compound or oxidized LDL but with adding saline instead. The level of LDH in this well was defined as 100% cell protection. These levels of LDH were used for calculating cell protection of each test compound used in the above test.
Probucol and α-tocopherol were tested for comparison with the compounds of the present invention. In this test, the test compounds were added to the cell culture after incubation for 6 hours following medium replacement and immediately before oxidized LDL was added.

[1] = system: normal human bronchial/tracheal epithelial cells (NHBE w/RA); experiment: Protective effect against cell injury induced by oxidized LDL in normal human bronchial/tracheal epithelial cells (LDH leakage); type: cell-based; conditions: 24 h, average ± standard error; for inhibition at 3 µM: 3 μmol/L test compound; for inhibition at 30 µM: 30 μmol/L test compound
Description: as §1, §2, §3, §4, §5, §6
This test example was carried out in a similar manner to test example 1 except that human A549 cells were replaced with normal human bronchial/tracheal epithelial cells (NHBE w/RA: BioWhittaker Co.), cell culture medium was changed from F12K medium containing 10% FBS to BEGM® medium, and the replacement of medium was not made.

[2] = read-out: % Cell protection in the case where oxidized LDL was added 6 hrs after adding test compound
[3] = read-out: % Cell protection in the case where oxidized LDL was added immediately after adding test compound

Structure (SMILES)	inhibition at 3 µM (human A549 cells; [2])	inhibition at 3 µM (human A549 cells; [3])	inhibition at 30 µM (human A549 cells; [2])	inhibition at 30 µM (human A549 cells; [3])	inhibition at 3 µM [1, 2]	inhibition at 3 µM [1, 3]	inhibition at 30 µM [1, 2]	inhibition at 30 µM [1, 3]	% cell protection as a function of test compound concentration (FIG. 1) (human A549 cells)
CC(C)(C)c1cc2c(c(C(C)(C)C)c1O)CCO2 [Compound 1, 4,6-di-t-butyl-5-hydroxy-2,3-dihydrobenzofuran]	11.3 ± 1.6%	40.4 ± 8.3%	99.6 ± 0.9%	98.8 ± 0.2%	5.9 ± 4.7%	35.6 ± 16.8%	74.7 ± 1.4%	59.2 ± 7.6%	
CC1(C)Cc2c(cc(C(C)(C)C)c(O)c2C(C)(C)C)O1 [Compound 2, 4,6-di-t-butyl-5-hydroxy-2,2-dimethyl-2,3-dihydrobenzofuran]	0.5 ± 1.3%	16.9 ± 10.5%	99.5 ± 1.1%	100 ± 1.5%	32.8 ± 2.9%	71.1 ± 1.3%	27.7 ± 2.7%	76.1 ± 3.4%	
CC(C)(C)c1cc2c(c(C(C)(C)C)c1O)CC(Cc1ccccc1)(Cc1ccccc1)O2 [Compound 4, 4,6-di-t-butyl-2,2-dibenzyl-5-hydroxy-2,3-dihydrobenzofuran]	6.1 ± 2.5%	5.3 ± 2.5%	94.1 ± 0.4%	95.3 ± 3.4%	12.3 ± 4.3%	9.1 ± 2.3%	47.8 ± 1.6%	53.5 ± 3.1%	
CC1(CN)Cc2c(cc(C(C)(C)C)c(O)c2C(C)(C)C)O1 (stereo not drawn) [Compound 5, 2-aminomethyl-4,6-di-t-butyl-5-hydroxy-2-methyl-2,3-dihydrobenzofuran]	6.4 ± 0.8%	6.9 ± 3.1%	96.5 ± 0.5%	97.1 ± 0.8%	6.3 ± 4.5%	0.8 ± 4.6%	33.6 ± 1.8%	48.3 ± 8.1%	
CC1(C(=O)O)Cc2c(cc(C(C)(C)C)c(O)c2C(C)(C)C)O1 (stereo not drawn) [Compound 6, 4,6-di-t-butyl-5-hydroxy-2-methyl-2,3-dihydrobenzofuran-2-carboxylic acid]	8.5 ± 0.8%	9.1 ± 1.2%	65.3 ± 2.9%	46.7 ± 2.9%	-0.9 ± 1.8%	0.3 ± 2%	44.8 ± 3.2%	30.3 ± 3.1%	
CC(C)(C)c1cc2c(c(C(C)(C)C)c1O)CC1(CCCCCC1)O2 [Compound 7, 4,6-di-t-butyl-5-hydroxy-2,3-dihydrobenzofuran-2-spiro-1′-cycloheptane]	1.6 ± 6%	-0.8 ± 2.8%	98.2 ± 2.1%	98.4 ± 1.1%	7.7 ± 3.6%	11.3 ± 1.1%	58.7 ± 5.1%	73.4 ± 0.4%	
CC(C)(C)c1cc2c(c(C(C)(C)C)c1O)CC1(CCOCC1)O2 [Compound 8, 4,6-di-t-butyl-5-hydroxy-2,3-dihydrobenzofuran-2-spiro-4′-tetrahydropyran]	10.6 ± 6.2%	10.8 ± 5.2%	95 ± 5.3%	93.6 ± 2.9%	10.1 ± 6%	13.2 ± 1.4%	74.3 ± 1.5%	68.9 ± 0.8%	
CC(C)(C)c1cc2c(c(C(C)(C)C)c1O)CC1(CCCC1)O2 [Compound 9, 4,6-di-t-butyl-5-hydroxy-2,3-dihydrobenzofuran-2-spiro-1′-cyclopentane]	-1.6 ± 4.4%	-1.5 ± 4.1%	98.5 ± 1.8%	99.2 ± 2.2%	3.7 ± 6.7%	6.1 ± 1.1%	18.1 ± 2.3%	71.1 ± 2.3%	
CC(C)(C)c1cc2c(c(C(C)(C)C)c1O)CC1(CCCCC1)O2 [Compound 10, 4,6-di-t-butyl-5-hydroxy-2,3-dihydrobenzofuran-2-spiro-1′-cyclohexane]	-0.7 ± 1.5%	0.9 ± 1.9%	97.8 ± 2.1%	96.9 ± 4.8%	5.3 ± 2.6%	13.1 ± 6.4%	37.3 ± 4.3%	57 ± 2.5%	
CC(C)(C)c1cc2c(c(C(C)(C)C)c1O)CC1(CCSCC1)O2 [Compound 11, 4,6-di-t-butyl-5-hydroxy-2,3-dihydrobenzofuran-2-spiro-4′-tetrahydrothiopyran]	3.5 ± 2.6%	4.6 ± 2.6%	99.3 ± 1.1%	98.5 ± 0.8%	3 ± 3.2%	7.5 ± 7.6%	52 ± 2.2%	40.9 ± 5.3%	
CC1(C)Cc2c(cc(C(C)(C)C)c(O)c2C(C)(C)C)S1 [Compound 12, 4,6-di-t-butyl-5-hydroxy-2,2-dimethyl-2,3-dihydrobenzothiophene]	9.9 ± 6.8%	11.1 ± 7.4%	98.7 ± 2.9%	96.6 ± 2%	10.9 ± 2.1%	10.9 ± 3.8%	21.2 ± 2%	48.7 ± 1.2%	
CC(C)(C)c1cc2c(c(C(C)(C)C)c1O)CC1(CCCCC1)S2 [Compound 13, 4,6-di-t-butyl-5-hydroxy-2,3-dihydrobenzothiophene-2-spiro-1′-cyclohexane]	10.8 ± 3.9%	11.3 ± 3.5%	98 ± 1%	97.1 ± 4.3%	-3.4 ± 7.1%	-4.8 ± 2.9%	37.8 ± 0.7%	49.2 ± 1.7%	
CC(C)(C)c1cc2c(c(C(C)(C)C)c1O)CC1(CCOCC1)S2 [Compound 14, 4,6-di-t-butyl-5-hydroxy-2,3-dihydrobenzothiophene-2-spiro-4′-tetrahydropyran]	7 ± 3.5%	3.2 ± 1.3%	96.1 ± 1.2%	98.9 ± 2.4%	-0.5 ± 1.9%	-1 ± 5.3%	63.3 ± 0.8%	60.6 ± 4%	
Cc1cc2c(c(C)c1O)CC(C)(C)O2 [Compound 15, 5-hydroxy-2,2,4,6-tetramethyl-2,3-dihydrobenzofuran]	30 ± 10.2%	36.1 ± 14.1%	100.6 ± 0.9%	99.6 ± 0.7%	45.9 ± 4.5%	40.8 ± 3.3%	79.5 ± 6.4%	70.6 ± 4.9%	
CC1(C)Cc2c(c(C(C)(C)C)cc(O)c2C(C)(C)C)O1 [Compound 16, 4,7-di-t-butyl-5-hydroxy-2,2-dimethyl-2,3-dihydrobenzofuran]	100.3 ± 1%	99.1 ± 0.9%		98.4 ± 0.6%	54.9 ± 3.4%	62.6 ± 1.6%		42 ± 2.2%	
CCCCCC1(CCCCC)Cc2c(cc(C)c(O)c2C)O1 [Compound 17, 4,6-dimethyl-2,2-di-n-pentyl-5-hydroxy-2,3-dihydrobenzofuran]	97.8 ± 1.4%	97.7 ± 1.1%		98.1 ± 3.6%	44.8 ± 5.9%	51 ± 5%		57.6 ± 0.6%	
CC(C)(C)c1cc2c(cc1O)CC1(CCCCCC1)O2 [Compound 18, 6-t-butyl-5-hydroxy-2,3-dihydrobenzofuran-2-spiro-1′-cycloheptane]	98.7 ± 1.3%	96.2 ± 0.4%		97.4 ± 1%	55.7 ± 3.1%	46.4 ± 1.4%		35.5 ± 1.9%	
CC(C)(Sc1cc(C(C)(C)C)c(O)c(C(C)(C)C)c1)Sc1cc(C(C)(C)C)c(O)c(C(C)(C)C)c1 [probucol, reference compound]									does not increase or only slowly increases
Cc1c(C)c2c(c(C)c1O)CC[C@@](C)(CCC[C@H](C)CCC[C@H](C)CCCC(C)C)O2 [α-tocopherol, reference compound]									does not increase or only slowly increases
